Measurements taken from US20250332154A1, “USE OF NAPHTHOQUINE PHOSPHATE IN PREPARATION OF A MEDICAMENT FOR TREATING AUTOIMMUNE DISEASES” (SHANGHAI PHARMACEUTICALS INDUSTRY CO., LTD, priority 2022, published 2025).

Columns and labels:
[1] = system: purified splenic B cells of arthritic mice; assay: TLRs-L-induced activation of purified splenic B cells from treated arthritic mice; type: in vivo, mouse; details: intragastric 50, 100 mg/kg, FIG. 6
Experimental: Normal group, model group, positive medicament (1 mg/kg methotrexate) group, naphthoquine phosphate (50, 100 mg/kg) group, hydroxychloroquine sulfate (100 mg/kg) group.
Same as those described in Example 5.
At the end of the experiment, spleens of mice in each group were collected, and splenic B cells were purified as described in Example 4. Different TLRs-L were used for stimulation. ^3H-TDR incorporation method was used to detect proliferation, ELISA method was used to detect the levels of IL-6 and antibody secretion, and flow cytometry was used to detect the expressions of CD80, CD86, and CD69.
Suspensions of purified mouse B cells from each group were inoculated into a 96-well plate at 4×10^5/well, and the stimulant TLR4-L (final concentration: 10 μg/ml), TLR7-L (final concentration: 5 μg/ml) or TLR9-L (final concentration: 1 μM) was added. […] 5 ml scintillation fluid was added, and the values of radioactive counts per minute were read on a Beta counter (2450 Microplate Counter, PerkinElmer).
Suspensions of purified mouse B cells from each group were inoculated into a 96-well plate at 4×10^5/well, and the stimulant TLR4-L (final concentration: 10 μg/ml), TLR7-L (final concentration: 5 μg/ml) or TLR9-L (final concentration: 1 μM) was added. […] After the end of the culture, the cell culture supernatants were collected, and the level of IL-6 was measured by ELISA. […]

[2] = system: spleen and lymph node lymphocytes in arthritic mice; assay: Lymphocyte proliferation of spleen and lymph nodes of arthritic mice (3H-TdR incorporation); type: in vivo, mouse; details: intragastric, cells stimulated ex vivo, FIG. 3
Experimental: Normal group, model group, positive medicament (1 mg/kg dexamethasone) group, naphthoquine phosphate (25, 50, 100 mg/kg) groups, hydroxychloroquine sulfate (100 mg/kg) group.
10 mg of Type II Collagen (CII) was swollen in 2.5 ml of 0.1 mol/L glacial acetic acid to prepare a 4 mg/ml CII solution. This solution was fully emulsified with an equal volume of CFA, and injected subcutaneously (50 μl) at the base of the tail of mice. After 21 days, 4 mg/ml CII solution was fully emulsified with an equal volume of IFA. This mixture was injected subcutaneously (50 μL) at the base of the tail of mice to boost the immune response.
Lymphocyte proliferation in each group was assessed using the ^3H-TdR incorporation method. Lymph nodes […] of mice in each group were isolated to prepare lymphocyte suspensions. The cells were inoculated into each well of a 96-well plate. ConA (final concentration: 5 μg/ml) and LPS (final concentration: 10 μg/ml) were added respectively, and cultured in a 37° C., 5% CO2 incubator for 48 hours. Eight hours before the end of the culture, 25 μl ^3H-TdR and anti-CD3 (final concentration: 5 μg/ml, pre-incubated overnight) were added to each well. The cells were cultured in a 37° C., 5% CO2 incubator for […]. […] 5 ml scintillation fluid was added, and the values of radioactive counts per minute were read on a Beta counter (2450 Microplate Counter, PerkinElmer).

## CC(C)(C)NCc1cc(Nc2ccnc3cc(Cl)ccc23)c2c(c1O)CCCC2.O=P(O)(O)O.O=P(O)(O)O [Naphthoquine Phosphate, Naphthoquine phosphate]
[1]
  B cell activation, cytokine secretion and antibody production mediated by TLR signaling: significantly inhibited
[2]
  proliferation of spleen and lymph node lymphocytes in arthritic mice: significantly inhibit
